Laboratory results taken from patent publication US12252524B2, “GIP/GLP1 co-agonist compounds” (Eli Lilly and Company, priority 2018, dated 2025).
Numbered stars: 1 amine (or outer) side, 2 acyl side, 3 side chain; on linkers, the order of the positions; unused ones are H or OH. Square brackets hold non-standard residues; d marks the D form. Side chains are listed from the residue outwards. Peptide text beside a SMILES is read from it. * marks the point of attachment. C20 diacid = O=C(O)CCCCCCCCCCCCCCCCCCC(=O)*; C18 diacid = O=C(O)CCCCCCCCCCCCCCCCC(=O)*; γGlu = O=C(O)[C@H](CCC(=O)[*:2])N[*:1]; αMeL = CC(C)C[C@](C)(N)C(=O)O; AEEA = NCCOCCOCC(=O)O; Aib = CC(C)(N)C(=O)O

Key:
human Gcg receptor = molecular target: T1, human Gcg receptor (Homo sapiens, UniProt P47871); assay: [125I]-Glucagon binding (SPA), human Gcg receptor; conditions: read-out: hGLcgR Ki, nM (SEM, n)
T1 construct: expressed in transfected cells; crude membranes
T1 sequence (P47871 26-477): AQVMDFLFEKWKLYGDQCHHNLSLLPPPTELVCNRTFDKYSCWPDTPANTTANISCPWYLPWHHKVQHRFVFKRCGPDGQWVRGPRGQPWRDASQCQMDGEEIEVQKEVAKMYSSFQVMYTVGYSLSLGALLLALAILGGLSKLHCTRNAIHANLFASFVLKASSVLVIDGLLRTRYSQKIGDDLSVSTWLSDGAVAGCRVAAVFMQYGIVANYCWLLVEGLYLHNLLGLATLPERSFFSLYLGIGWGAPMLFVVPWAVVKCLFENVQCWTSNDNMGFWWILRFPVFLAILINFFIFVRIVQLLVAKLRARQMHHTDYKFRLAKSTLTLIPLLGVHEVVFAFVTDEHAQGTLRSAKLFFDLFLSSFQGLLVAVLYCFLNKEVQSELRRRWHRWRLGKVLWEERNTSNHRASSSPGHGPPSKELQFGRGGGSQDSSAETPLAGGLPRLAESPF
How it was run: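 Crude membranes from cells expressing the receptor, prepared by hypotonic lysis in 50 mM Tris HCl pH 7.5 with protease inhibitors, homogenization and differential centrifugation, were used in a WGA-bead SPA. Binding buffer: 25 mM HEPES pH 7.4, 2.5 mM CaCl2, 1 mM MgCl2, bacitracin, Tween-20.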

human GIP receptor = molecular target: T2, human GIP receptor (Homo sapiens, UniProt P48546); assay: [125I]-GIP binding (SPA), human GIP receptor; conditions: read-out: hGIPR Ki, nM (SEM, n)
T2 construct: expressed in transfected cells; crude membranes
T2 sequence (P48546 22-466): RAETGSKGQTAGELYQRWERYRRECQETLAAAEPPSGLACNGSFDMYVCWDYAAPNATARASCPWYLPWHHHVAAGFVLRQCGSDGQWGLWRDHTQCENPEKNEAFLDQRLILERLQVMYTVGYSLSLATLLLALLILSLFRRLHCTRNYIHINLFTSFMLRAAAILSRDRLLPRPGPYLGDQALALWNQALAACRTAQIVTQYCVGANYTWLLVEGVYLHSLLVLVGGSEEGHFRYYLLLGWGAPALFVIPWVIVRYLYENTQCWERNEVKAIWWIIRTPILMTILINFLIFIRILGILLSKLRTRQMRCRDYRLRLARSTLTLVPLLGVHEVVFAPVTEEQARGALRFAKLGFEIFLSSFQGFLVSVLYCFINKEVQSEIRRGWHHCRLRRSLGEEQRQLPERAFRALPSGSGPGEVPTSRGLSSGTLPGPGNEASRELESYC

[1] = molecular target: human GLP-1 receptor (GLP-1R) (Homo sapiens, UniProt P43220); assay: cAMP pharmacological functional assay in presence of casein, hGLP-1R; format: cell-based; conditions: HEK293 cells expressing hGLP-1R, 0.1% Casein, geometric mean; read-out: hGLP1R cAMP Rel EC50 nM (SEM, n)
Sequence of human GLP-1 receptor (GLP-1R) (P43220 24-463): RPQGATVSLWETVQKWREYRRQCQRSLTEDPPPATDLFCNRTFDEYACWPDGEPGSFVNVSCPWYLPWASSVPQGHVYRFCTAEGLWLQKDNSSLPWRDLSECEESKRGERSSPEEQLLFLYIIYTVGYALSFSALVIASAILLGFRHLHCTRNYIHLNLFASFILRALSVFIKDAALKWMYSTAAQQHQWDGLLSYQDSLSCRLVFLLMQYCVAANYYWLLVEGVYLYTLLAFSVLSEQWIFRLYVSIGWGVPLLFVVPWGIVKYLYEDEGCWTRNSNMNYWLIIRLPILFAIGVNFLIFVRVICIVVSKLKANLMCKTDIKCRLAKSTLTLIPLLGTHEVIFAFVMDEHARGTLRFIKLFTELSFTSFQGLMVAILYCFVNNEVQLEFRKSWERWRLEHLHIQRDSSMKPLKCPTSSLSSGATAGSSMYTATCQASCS

[2] = molecular target: T3, gastric inhibitory peptide receptor (GIPR) (Homo sapiens, UniProt P48546); assay: cAMP pharmacological functional assay in presence of casein, hGIPR; format: cell-based; conditions: HEK293 cells expressing hGIPR, 0.1% Casein, geometric mean; read-out: hGIPR cAMP Rel EC50 nM (SEM, n)
T3 sequence (P48546 22-466): T2 sequence (P48546 22-466)

human GLP-1R [3] = molecular target: T4, human GLP-1R (Homo sapiens, UniProt P43220); assay: [125I]-GLP-1 binding (SPA), human GLP-1 receptor; set-up: expressed in transfected cells; crude membranes; conditions: read-out: hGLP1R Ki, (nM) (SEM, n)
T4 sequence (P43220 24-463): as above
How it was run: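 Frozen cell pellets are lysed on ice in hypotonic Tris buffer, pH 7.5, homogenized, and centrifuged to a membrane pellet resuspended at about 1 to 3 mg/mL. Binding is then measured in HEPES-based buffer at pH 7.4, and curves are fitted to give IC50 and Ki.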

human GLP-1R [4] = molecular target: T4, human GLP-1R; assay: GLP-1R HEK293 cell membrane [35S]GTPγS binding assay; format: biochemical; set-up: expressed in transfected cells; host or cells: HEK293 cells expressing human GLP-1R; membranes; conditions: HEK293 cell membranes expressing human GLP-1R, [35S]GTPγS binding; read-out: hGLP1R GTPgS Rel EC50 nM (SEM, n)
Procedure: The GLP-1 receptor is a G-protein coupled receptor that increases GTP-bound Gas upon ligand induced receptor activation. The potency of peptides to stimulate-GLP-1R induced activation of Gac is determined using preparations of purified membranes from HEK293 cells expressing the human GLP-1R. […] The test peptides are solubilized in DMSO and diluted in reaction buffer containing 5 μg of membrane in 20 mM HEPES pH 7.4, 50 mM NaCl, 5 mM MgCl2, 40 μg/ml saponin, 0.1% BSA, and […] ^35S-labeled GTPTS for 30 minutes at room temperature. Reactions are terminated by addition of 0.2% Nonidet β-40 detergent containing rabbit anti-Gas polyclonal antibody and 0.5 mg of anti-rabbit polyvinyltoluene beads. Mixtures are developed for 30 minutes, centrifuged at 80×g for 10 minutes, and counted for 1 minute/well using a MicroBeta TriLux instrument. Peptide concentration-response curves are fit to a four-parameter logistic model to calculate potency as an EC50.

Row | Structure (SMILES) | Ki (human Gcg receptor) | Ki (human GIP receptor) | EC50 [1] | EC50 [2] | Ki (human GLP-1R [3]) | EC50 (human GLP-1R [4])
1 | CC[C@H](C)[C@H](NC(=O)[C@H](CC(C)C)NC(=O)[C@H](Cc1ccc(O)cc1)NC(=O)[C@H](CCC(=O)O)NC(=O)[C@@H](NC(=O)[C@H](Cc1ccccc1)NC(=O)[C@H](C)NC(=O)C(C)(C)NC(=O)[C@H](CCC(N)=O)NC(=O)[C@H](C)NC(=O)[C@H](CCCCNC(=O)COCCOCCNC(=O)COCCOCCNC(=O)CC[C@H](NC(=O)CCCCCCCCCCCCCCCCC(=O)O)C(=O)O)NC(=O)[C@H](CCCCN)NC(=O)[C@H](CC(=O)O)NC(=O)[C@H](CC(C)C)NC(=O)[C@](C)(CC(C)C)NC(=O)[C@@H](NC(=O)[C@H](CO)NC(=O)[C@H](Cc1ccc(O)cc1)NC(=O)[C@H](CC(=O)O)NC(=O)[C@H](CO)NC(=O)[C@@H](NC(=O)[C@H](Cc1ccccc1)NC(=O)[C@@H](NC(=O)CNC(=O)[C@H](CCC(=O)O)NC(=O)C(C)(C)NC(=O)[C@@H](N)Cc1ccc(O)cc1)[C@@H](C)O)[C@@H](C)O)[C@@H](C)CC)[C@@H](C)CC)C(=O)N[C@@H](C)C(=O)NCC(=O)NCC(=O)N1CCC[C@H]1C(=O)N[C@@H](CO)C(=O)N[C@@H](CO)C(=O)NCC(N)=O [Example 305] (H-Y[Aib]EGTFTSDYSI[αMeL]LDKK([AEEA-AEEA-γGlu-C18 diacid])AQ[Aib]AFIEYLIAGGPSSG-NH2) | 352 nM | 0.025 nM | 0.107 nM | 0.0225 nM | 0.83 nM | 0.389 nM
2 | CC[C@H](C)[C@H](NC(=O)[C@H](CC(C)C)NC(=O)[C@H](Cc1ccc(O)cc1)NC(=O)[C@H](CCC(=O)O)NC(=O)[C@@H](NC(=O)[C@H](Cc1ccccc1)NC(=O)[C@H](C)NC(=O)C(C)(C)NC(=O)[C@H](CCC(N)=O)NC(=O)[C@H](C)NC(=O)[C@H](CCCCNC(=O)COCCOCCNC(=O)COCCOCCNC(=O)CC[C@H](NC(=O)CCCCCCCCCCCCCCCCCCC(=O)O)C(=O)O)NC(=O)[C@H](CCCCN)NC(=O)[C@H](CC(=O)O)NC(=O)[C@H](CC(C)C)NC(=O)[C@H](CC(C)C)NC(=O)[C@@H](NC(=O)[C@H](CO)NC(=O)[C@H](Cc1ccc(O)cc1)NC(=O)[C@H](CC(=O)O)NC(=O)[C@H](CO)NC(=O)[C@@H](NC(=O)[C@H](Cc1ccccc1)NC(=O)[C@@H](NC(=O)CNC(=O)[C@H](CCC(=O)O)NC(=O)C(C)(C)NC(=O)[C@@H](N)Cc1ccccc1)[C@@H](C)O)[C@@H](C)O)[C@@H](C)CC)[C@@H](C)CC)C(=O)N[C@@H](CCC(=O)O)C(=O)NCC(=O)NCC(=O)N1CCC[C@H]1C(=O)N[C@@H](CO)C(=O)N[C@@H](CO)C(=O)NCC(=O)N[C@@H](C)C(=O)N1CCC[C@H]1C(=O)N1CCC[C@H]1C(=O)N1CCC[C@H]1C(=O)N[C@@H](CO)C(N)=O [Example 326] (H-F[Aib]EGTFTSDYSILLDKK([AEEA-AEEA-γGlu-C20 diacid])AQ[Aib]AFIEYLIEGGPSSGAPPPS-NH2) | 207 nM | 0.251 nM | 0.0369 nM | 0.0754 nM | 2.92 nM | 0.663 nM
3 | CC[C@H](C)[C@H](NC(=O)[C@H](CC(C)C)NC(=O)[C@H](Cc1ccc(O)cc1)NC(=O)[C@H](CCC(=O)O)NC(=O)[C@@H](NC(=O)[C@H](Cc1ccccc1)NC(=O)[C@H](CCC(=O)O)NC(=O)C(C)(C)NC(=O)[C@H](CCC(N)=O)NC(=O)[C@H](C)NC(=O)[C@H](CCCCNC(=O)COCCOCCNC(=O)COCCOCCNC(=O)CC[C@H](NC(=O)CCCCCCCCCCCCCCCCC(=O)O)C(=O)O)NC(=O)[C@H](CCCCN)NC(=O)[C@H](CC(=O)O)NC(=O)[C@H](CC(C)C)NC(=O)[C@](C)(CC(C)C)NC(=O)[C@@H](NC(=O)[C@H](CO)NC(=O)[C@H](Cc1ccc(O)cc1)NC(=O)[C@H](CC(=O)O)NC(=O)[C@H](CO)NC(=O)[C@@H](NC(=O)[C@H](Cc1ccccc1)NC(=O)[C@@H](NC(=O)CNC(=O)[C@H](CCC(=O)O)NC(=O)C(C)(C)NC(=O)[C@@H](N)Cc1ccc(O)cc1)[C@@H](C)O)[C@@H](C)O)[C@@H](C)CC)[C@@H](C)CC)C(=O)N[C@@H](CCC(=O)O)C(=O)NCC(=O)NCC(=O)N1CCC[C@H]1C(=O)N[C@@H](CO)C(=O)N[C@@H](CO)C(=O)NCC(N)=O [Example 304] (H-Y[Aib]EGTFTSDYSI[αMeL]LDKK([AEEA-AEEA-γGlu-C18 diacid])AQ[Aib]EFIEYLIEGGPSSG-NH2) | > 855 nM | 0.0499 nM | 0.191 nM | 0.0296 nM | 4.44 nM | 0.561 nM
4 | CC[C@H](C)[C@H](NC(=O)[C@H](CC(C)C)NC(=O)[C@H](Cc1ccc(O)cc1)NC(=O)[C@H](CCC(=O)O)NC(=O)[C@@H](NC(=O)[C@H](Cc1ccccc1)NC(=O)[C@H](C)NC(=O)C(C)(C)NC(=O)[C@H](CCC(N)=O)NC(=O)[C@H](C)NC(=O)[C@H](CCCCNC(=O)COCCOCCNC(=O)COCCOCCNC(=O)CC[C@H](NC(=O)CCCCCCCCCCCCCCCCCCC(=O)O)C(=O)O)NC(=O)[C@H](CCCCN)NC(=O)[C@H](CC(=O)O)NC(=O)[C@H](CC(C)C)NC(=O)[C@H](CC(C)C)NC(=O)[C@@H](NC(=O)[C@H](CO)NC(=O)[C@H](Cc1ccc(O)cc1)NC(=O)[C@H](CC(=O)O)NC(=O)[C@H](CO)NC(=O)[C@@H](NC(=O)[C@](C)(Cc1ccccc1F)NC(=O)[C@@H](NC(=O)CNC(=O)[C@H](CCC(=O)O)NC(=O)C(C)(C)NC(=O)[C@@H](N)Cc1ccc(O)cc1)[C@@H](C)O)[C@@H](C)O)[C@@H](C)CC)[C@@H](C)CC)C(=O)N[C@@H](CCC(=O)O)C(=O)NCC(=O)NCC(=O)N1CCC[C@H]1C(=O)N[C@@H](CO)C(=O)N[C@@H](CO)C(=O)NCC(=O)N[C@@H](C)C(=O)N1CCC[C@H]1C(=O)N1CCC[C@H]1C(=O)N1CCC[C@H]1C(=O)N[C@@H](CO)C(N)=O [Example 325] | 13 nM | 0.0209 nM | 0.0586 nM | 0.0301 nM | 0.475 nM | 0.414 nM
5 | CC[C@H](C)[C@H](NC(=O)[C@H](CC(C)C)NC(=O)[C@H](Cc1ccc(O)cc1)NC(=O)[C@H](CCC(=O)O)NC(=O)[C@@H](NC(=O)[C@H](Cc1ccccc1)NC(=O)[C@H](C)NC(=O)C(C)(C)NC(=O)[C@H](CCC(N)=O)NC(=O)[C@H](C)NC(=O)[C@H](CCCCNC(=O)COCCOCCNC(=O)COCCOCCNC(=O)CC[C@H](NC(=O)CCCCCCCCCCCCCCCCCCC(=O)O)C(=O)O)NC(=O)[C@H](CCCCN)NC(=O)[C@H](CC(=O)O)NC(=O)[C@H](CC(C)C)NC(=O)[C@H](CC(C)C)NC(=O)[C@@H](NC(=O)[C@H](CO)NC(=O)[C@H](Cc1ccc(O)cc1)NC(=O)[C@H](CC(=O)O)NC(=O)[C@H](CO)NC(=O)[C@@H](NC(=O)[C@H](Cc1ccccc1)NC(=O)[C@@H](NC(=O)CNC(=O)[C@H](CCC(=O)O)NC(=O)C(C)(C)NC(=O)[C@@H](N)Cc1ccc(O)cc1)[C@@H](C)O)[C@@H](C)O)[C@@H](C)CC)[C@@H](C)CC)C(=O)N[C@@H](C)C(=O)NCC(=O)NCC(=O)N1CCC[C@H]1C(=O)N[C@@H](CO)C(=O)N[C@@H](CO)C(=O)NCC(N)=O [Example 317] (H-Y[Aib]EGTFTSDYSILLDKK([AEEA-AEEA-γGlu-C20 diacid])AQ[Aib]AFIEYLIAGGPSSG-NH2; N-terminus assumed) | 253 nM | 0.0215 nM | 0.172 nM | 0.0948 nM | 2.63 nM | 0.536 nM
